Source: patent US4352818A, “Diazepine derivatives and their use” (Hoffmann-La Roche Inc., priority 1981, dated 1982)

What was measured:
[1] = biological target: central benzodiazepine receptors; assay: inhibition of the binding of tritiated diazepam at the specific benzodiazepine receptors in the cerebral cortex; conditions: 50 percent inhibition of the specific binding of the tritiated diazepam
Description: The affinity of compounds of formula I to the central benzodiazepine receptors was determined according to the method described in Life Science 20, 2101-2110 (1977) and Science 198, 849-851 (1977). According to this method, the inhibition of the binding of tritiated diazepam at the specific benzodiazepine receptors in the cerebral cortex by the respective test substances is ascertained. The IC50 ("50% inhibiting concentration") is that concentration of the respective test substance which brings about a 50 percent inhibition of the specific binding of the tritiated diazepam at the specific benzodiazepine receptors in the cerebral cortex.

[2] = test system: activity of the diazepam in the pentetrazole test; assay: antagonism of diazepam in the pentetrazole test; assay type: in vivo; conditions: Mus musculus, po; counteracts the diazepam effect in 50% of the animals; diazepam 5 mg/kg i.p. 1 hour before, test compound p.o. 15 minutes before pentetrazole 120 mg/kg i.p.; mice
Description: (§1) This property was used to evaluate the test described hereinafter which permits the determination of compounds which are capable of antagonizing the central properties of 1,4-benzodiazepines which have tranquillizing activity.
(§2) The antagonistic activity of the compounds investigated, i.e. their ability to counteract the activity of the diazepam in the pentetrazole test, is determined by counting the mice which suffer convulsive attacks in this test.
In the following Table there are presented the results which have been obtained with representative members of the class of compound defined by formula I in the test previously described. The ED50 is the amount of test compound in mg/kg (p.o.) which in 50% of the animals counteracts the diazepam effect in the above test. Moreover, the Table contains the IC50 value (defined above) for all test compounds listed therein.

[3] = test system: convulsive attacks in the pentetrazole test; assay: pentetrazole test (anticonvulsant activity of diazepam); assay type: in vivo; conditions: diazepam 5 mg/kg i.p. (supramaximal dosage), more than 900 mice
Description: as §1, §2

SMILES | IC50 [1] [nM] | ED50 [2] [mg/kg] | protection from convulsive attacks [3]
O=C1c2ccccc2-n2cnc(Cl)c2[C@@H]2CCCN12 [(a) H H Cl --(CH2)3 -- O (S), (S)-1-chloro-11,12,13,13a-tetrahydro-9H-imidazo[1,5-a]pyrrolo[2,1-c][1,4]benzodiazepin-9-one] | 120 | 8 | –
O=C1c2c(Cl)cccc2-n2cnc(Cl)c2C2C=CCN12 (racemic) [(a) H Cl Cl --CH=CH--CH2 -- O (R/S), (R,S)-1,8-dichloro-11,13a-dihydro-9H-imidazo[1,5-a]pyrrolo[2,1-c][1,4]benzodiazepin-9-one] | 3.9 | 1 | –
CN1Cc2c(I)ncn2-c2ccccc2C1=O [(a) H H J H --CH3 O --, 4,5-dihydro-3-iodo-5-methyl-6H-imidazo[1,5-a][1,4]benzodiazepin-6-one] | 23 | 2.5 | –
O=C1c2sccc2-n2cnc(Cl)c2[C@@H]2CCCN12 [(b) -- -- Cl --(CH2)3 -- O (S), (S)-1-Chloro-10,11,12,12a-tetrahydro-8H-imidazo[5,1-c]pyrrolo[1,2-a]thieno[3,2-e][1,4]diazepin-8-one] | 17 | 0.83 | –
CN1Cc2c(Br)ncn2-c2ccccc2C1=O [(a) H H Br H --CH3 O --, 3-bromo-4,5-dihydro-5-methyl-6H-imidazo[1,5-a][1,4]benzodiazepin-6-one] | 34 | 4.5 | –
CN1Cc2cncn2-c2cccc(Cl)c2C1=O [(a) H Cl H H --CH3 O --, 7-chloro-4,5-dihydro-5-methyl-6H-imidazo[1,5-a][1,4]benzodiazepin-6-one] | 110 | 6.2 | –
O=C1c2c(Cl)cccc2-n2cncc2C2C=CCN12 (racemic) [(a) H Cl H --CH=CH--CH2 -- O (R/S), (R,S)-8-chloro-11,13a-dihydro-9H-imidazo[1,5-a]pyrrolo[2,1-c][1,4]benzodiazepin-9-one] | 240 | 10.9 | –
COCc1ncn2c1CN(C)C(=O)c1c(Cl)cccc1-2 [(a) H Cl --CH2 OCH3 H --CH3 O --, 7-chloro-4,5-dihydro-3-(methoxymethyl)-5-methyl-6H-imidazo[1,5-a][1,4]benzodiazepin-6-one] | 30 | 1.4 | –
COCc1ncn2c1CN(C)C(=O)c1ccccc1-2 [(a) H H --CH2 OCH3 H --CH3 O --, 4,5-dihydro-3-(methoxymethyl)-5-methyl-6H-imidazo[1,5-a][1,4]benzodiazepin-6-one] | 380 | 8.9 | –
CN1Cc2c(Br)ncn2-c2ccc(F)cc2C1=O [(a) F H Br H --CH3 O --, 3-bromo-8-fluoro-4,5-dihydro-5-methyl-6H-imidazo[1,5-a][1,4]benzodiazepin-6-one] | 51 | 7.1 | –
CN1Cc2c(Cl)ncn2-c2ccccc2C1=O [(a) H H Cl H --CH3 O --, 3-chloro-4,5-dihydro-5-methyl-6H-imidazo[1,5-a][1,4]benzodiazepin-6-one] | 100 | 1.7 | –
O=C1c2ccccc2-n2cnc(Br)c2[C@@H]2CCCN12 [(a) H H Br --(CH2)3 -- O (S), (S)-1-bromo-11,12,13,13a-tetrahydro-9H-imidazo[1,5-a]pyrrolo[2,1-c][1,4]benzodiazepin-9-one] | 48 | 9.9 | –
CN1Cc2c(Cl)ncn2-c2cccc(Cl)c2C1=O [(a) H Cl Cl H --CH3 O --, 3,7-dichloro-4,5-dihydro-5-methyl-6H-imidazo[1,5-a][1,4]benzodiazepin-6-one] | 3.6 | 0.9 | –
CN1Cc2c([N+](=O)[O-])ncn2-c2ccccc2C1=O [(a) H H --NO2 H --CH3 O --, 4,5-dihydro-5-methyl-3-nitro-6H-imidazo[1,5-a][1,4]benzodiazepin-6-one] | 72 | 4 | –
CN1Cc2c(Cl)ncn2-c2ccc(F)cc2C1=O [(a) F H Cl H --CH3 O --, 3-chloro-8-fluoro-4,5-dihydro-5-methyl-6H-imidazo[1,5-a][1,4]benzodiazepin-6-one] | 28 | 2.3 | –
CN1C(=O)CN=C(c2ccccc2)c2cc(Cl)ccc21 [diazepam] | – | – | protects all experimental animals from convulsive attacks
CN1Cc2c(Cl)ncn2-c2ccccc2C1=S [(a) H H Cl H --CH3 S --, 3-chloro-4,5-dihydro-5-methyl-6H-imidazo[1,5-a][1,4]benzodiazepine-6-thione] | 250 | 10.5 | –
